{"source": "patent US6984656B2", "about": "“Core modified porphyrins” (priority 2001, dated 2006)", "key": {"[1]": {"test_system": "Colo-26 cells", "experiment": "Dark and light-induced toxicity toward Colo-26 cells in culture", "type": "cell-based, murine", "protocol": "In order to compare relative phototoxicity, the core-modified porphyrins of Table 1 were evaluated in culture for dark and light-induced toxicities toward Colo-26 cells, a murine colon carcinoma cell line."}, "[2]": {"experiment": "Rate of photobleaching in phosphate-buffered saline", "type": "physicochemical", "details": "PBS; 570-750 nm light at 500 mW cm^−2; constant initial absorbance", "description": "One limitation of PDT dosimetry is the rate of photobleaching of the photosensitizer, which can be problematic with Photofrin® and even more problematic with the bacteriochlorins and the chlorins (such as HPPH)."}, "[3]": {"experiment": "Tissue distribution by fluorescence in tumor-bearing BALB/c mice", "details": "mouse, in vivo", "description": "At various times after sensitizer administration, animals were sacrificed and sensitizer levels determined by direct extraction. In tumor-bearing animals (BALB/c mice or female Fischer rats), the concentration of sensitizer was determined by fluorescence spectroscopy where possible. At various time points post-injection of 5 μmol/kg of sensitizer or 90% of the LD10 (whichever is smaller), tissues were removed, weighed, homogenized, and frozen in liquid nitrogen (3-5 animals per time point). The homogenate, after thawing, was taken up in Solvable and the emission from sensitizer was quantified in terms of ng of sensitizer/mg of protein. With non-fluorescent sensitizers, sensitizer content was quantified spectrophotometrically. Distribution ratios were expressed as the uptake or retention of sensitizer in tumor relative to various normal tissues. Intensified digital fluorescence microscopy and/or confocal microscopy on frozen sections of the tumors, which were prepared from samples specified for this purpose, enabled us to assess intratumor sensitizer distributions."}, "[4]": {"test_system": "Colo-26 tumors", "experiment": "PDT against implanted Colo-26 tumors in BALB/c mice", "type": "in vivo", "details": "6 at 3.25 mg (3.0 μmol)/kg and 694-nm light", "description": "Core-modified porphyrin 6 gave a PDT response in vivo with 694-nm light in BALB/c mice bearing Colo-26 tumors. Animals treated with photosensitizer 6 at 3.25 mg (3.0 μmol)/kg and light required 10.3±0.8 d to reach 400-mm^3 tumor volume, which was more than double the time for control animals (4.3±1.0 d) receiving neither drug nor light (P <0.01).\nThe animals were irradiated 4 h post-injection with 135 J cm^−2 of 694-nm red light from a dye laser (75 mW cm^−2 for 30 min). […] For comparison purposes, BALB/C mice bearing Colo-26 tumors were given 2.5 mg (4.0 μmol)/kg of Photofrin® as a 5% aqueous dextrose solution and were irradiated 24 h later with 135 J cm^−2 of 630-nm laser light at a power of 75 mW cm^−2 for PDT with Photofrin®.\nAnimals initially were given i.v. (tail vein) injections of sensitizer at various concentrations (0.05to 5.0 μmol/kg). Mice were restrained at various times thereafter without anesthesia in specially designed holders. Fischer 344 female rats were chemically restrained at various times thereafter. In both models, tumors or normal back skin were exposed to light from a xenon arc lamp with appropriate filters or to a dye laser tuned to the absorption maximum determined by in vivo reflectance measurements. Power density of delivered light typically fell in the range of 10-200 mW cm^−2 evenly distributed to a spot size of roughly 1.5 cm and measured by a radiometer. Several dose rates were explored to examine role/limitation of available oxygen on the photodynamic process. Intratumor temperatures were measured with an Omega HYP-O microthermocouple and, when necessary, a stream of nitrogen gas was used to keep intratumor temperatures below 37° C. Animals were examined and measured daily for the first 14 days post treatment and every other day thereafter until the tumors reached 400 mm^3 in mice or until the tumors double in size for Fischer 344 female rats or for 90 days. Tumor size were measured in two dimensions with a caliper. Time to 400 mm^3 or volume doubling times of tumors from control and PDT-treated groups (8-12 animals per group) were compared statistically using the SAS statistical program (SAS, Inc., Cary, N.C.). A P-value of <0.05 is considered significant. The degree of damage to the normal skin within the irradiation field also were noted. Disappearance of tumor with minimal damage to normal skin is the most desirable response. Animals are considered cured if no tumor regrowth occurs by 90 days. In all studies, three control groups were utilized in addition to the treatment group receiving both sensitizer and light: 1) a complete control receiving neither drug nor light, 2) a group receiving sensitizer only, and 3) a group receiving light only. Representative animals from each of the treatment groups were processed for histology immediately, one day, or two weeks after irradiation. Step sections through the tumor were used to define the boundaries of tumor cell damage and death as a function of distance from the skin surface."}, "[5]": {"experiment": "Clearance from the serum by fluorescence", "type": "in vivo, mice", "details": "fluorescence measurements, post-injection", "protocol": "BALB/c mice were treated with 5 mg/kg of photosensitizer 6 and the ear-swelling response (ESR) was determined at selected time-points."}, "[6]": {"test_system": "BALB/c mice", "details": "mouse, in vivo, 10 mg/kg"}, "[7]": {"details": "5 mg (5 μmole)/kg of 6; BALB/c mice bearing Colo-26 tumors; cited from earlier work"}}, "note": "pEC50: −log10 of the molar value."}
{"substance": "5,10,15,20-tetrakis(4-sulfonatophenyl)-21,23-dithiaporphyrin [Compound 6]", "values": [{"measurement": "pEC50", "setting": "[1]; 24 h incubation in dark, 4 J cm^−2 of 590-800 nm light, survival 24 h later, read-out: effective concentration to give 50% cell-kill of Colo-26 cells in vitro (EC50)", "result": 4.52}, {"measurement": "dark toxicity toward Colo-26 cells", "setting": "[1]; dark, concentrations ≦100 μg/mL (≦100 μM)", "result": "negligible dark toxicity"}, {"measurement": "rate of photobleaching (kbleach)", "setting": "[2]", "result": "0.84 ± 0.02 × 10^4 s^−1"}, {"measurement": "tumor selectivity of uptake by fluorescence", "setting": "[3]", "result": "preferentially taken up by tumor"}, {"measurement": "time to reach 400-mm^3 tumor volume", "setting": "[4]", "result": "10.3 ± 0.8", "unit": "days"}, {"measurement": "time to clearance from the serum", "setting": "[5]", "result": 7, "unit": "days"}, {"measurement": "toxicity and morbidity", "setting": "[6]", "result": "no toxicity, morbidity, or side effects were observed"}, {"measurement": "concentration in tumor 24 h post-injection", "setting": "[7]", "result": "0.019±0.007 μg/g of protein"}]}
